Key:
[1] = tested on: BaF3-tel-PDGFRβ (stably expressing PDGFRβ kinase); assay: Growth of BaF3-tel-PDGFRβ cells, Cell Titer-Glo, 72 h; format: cell-based, mouse
Excerpt: (§1) In this example, mouse primary B cell BaF3 (purchased from ATCC, U.S.A.) was used. In addition, in this example, mouse BaF3-tel-PDGFRα (stably expressing PDGFRα kinase), mouse BaF3-tel-PDGFRβ (stably expressing PDGFRβ kinase), BaF3-P210 (stably expressing ABL kinase), BaF3-P210-T315I (stably expressing ABL-T315I kinase), BaF3-FL-BRAF-V600E (stably expressing BRAF-V600E kinase), BaF3-TEL-cKIT (stably expressing cKIT kinase), BaF3-TEL-VEGFR2 (stably expressing VEGFR2 kinase), BaF3-TEL-FGFR2 (stably expressing FGFR2 kinase) were also used. The above-mentioned cell trains were all constructed in our laboratory by the method as follows. The sequences of human BCR-ABL (P210 or P210/T315I mutated), full-length BRAF-V600E, cKIT, VEGFR2, FGFR2, PDGFRα, PDGFRβ kinase region were amplified respectively via PCR, and inserted respectively into a MSCV-Puro vector (purchased from Clontech) having a N-terminal TEL fragment and/or NPM fragment and/or TPR fragment, and stably transferred into mouse BaF3 cells by the retroviral method, and the growth factor IL-3 was removed. Eventually, cell lines which are transferred into proteins depending on PDGFRα, PDGFRβ were obtained.
(§2) In this example, solutions of the test compound at different concentrations (0.000508 μM, 0.00152 μM, 0.00457 μM, 0.0137 μM, 0.0411 μM, 0.123 μM, 0.370 μM, 1.11 μM, 3.33 μM, 10 μM) were added to the above cells. The cells were incubated for 72 hours.

[2] = tested on: BaF3-tel-PDGFRα (stably expressing PDGFRα kinase); assay: Growth of BaF3-tel-PDGFRα cells, Cell Titer-Glo, 72 h; format: cell-based, mouse
Excerpt: as §1, §2

[3] = tested on: BaF3-P210 (stably expressing ABL kinase; BCR-ABL P210); assay: Growth of BaF3-P210 cells, Cell Titer-Glo, 72 h; format: cell-based, mouse
Excerpt: as §1
(§3) In this example, solutions of the test compound at different concentrations (0.000508 μM, 0.00152 μM, 0.00457 μM, 0.0137 μM, 0.0411 μM, 0.123 μM, 0.370 μM, 1.11 μM, 3.33 μM, 10 μM) were added to the above cells. […]

[4] = tested on: BaF3-P210-T315I (stably expressing ABL-T315I kinase); assay: Growth of BaF3-P210-T315I cells, Cell Titer-Glo, 72 h; format: cell-based, mouse
Excerpt: as §1, §3

[5] = biological target: T1, BaF3-FL-BRAF-V600E (stably expressing BRAF-V600E kinase) (Homo sapiens, UniProt P15056, V600E); assay: Growth of BaF3-FL-BRAF-V600E cells, Cell Titer-Glo, 72 h; format: cell-based, mouse
T1 construct: human BCR-ABL (P210 or P210/T315I mutated), full-length BRAF-V600E; expressed in transfected cells; host or cells: mouse BaF3, retroviral MSCV-Puro
Excerpt: as §1, §3

[6] = tested on: human chronic eosinophilic leukemia cells EOL-1 (expressing PDGFRα); assay: Mouse tumor model of human chronic eosinophilic leukemia cells EOL-1; format: in vivo
Method: • 1) Bal b/c female mice, 4-6 weeks old, were purchased from Shanghai SLAC Laboratory Animal Co., Ltd., and were raised in an SPF laboratory; the drinking water and the bedding were both sterilized by autoclaving; and all the operations involving the mice were performed under aseptic conditions; • 2) On Day 0, 1×10^7 human chronic eosinophilic leukemia cells EOL-1 (expressing PDGFRα) (purchased from ATCC) were injected subcutaneously into the left flank of each of the mice; • 3) On Day 15, the mice were randomly divided into four groups with five mice per group, and were administered respectively for 14 days. […] The tumor volume was calculated as length×width×width/2 mm^3.

T1 sequence (P15056 whole entry V600E): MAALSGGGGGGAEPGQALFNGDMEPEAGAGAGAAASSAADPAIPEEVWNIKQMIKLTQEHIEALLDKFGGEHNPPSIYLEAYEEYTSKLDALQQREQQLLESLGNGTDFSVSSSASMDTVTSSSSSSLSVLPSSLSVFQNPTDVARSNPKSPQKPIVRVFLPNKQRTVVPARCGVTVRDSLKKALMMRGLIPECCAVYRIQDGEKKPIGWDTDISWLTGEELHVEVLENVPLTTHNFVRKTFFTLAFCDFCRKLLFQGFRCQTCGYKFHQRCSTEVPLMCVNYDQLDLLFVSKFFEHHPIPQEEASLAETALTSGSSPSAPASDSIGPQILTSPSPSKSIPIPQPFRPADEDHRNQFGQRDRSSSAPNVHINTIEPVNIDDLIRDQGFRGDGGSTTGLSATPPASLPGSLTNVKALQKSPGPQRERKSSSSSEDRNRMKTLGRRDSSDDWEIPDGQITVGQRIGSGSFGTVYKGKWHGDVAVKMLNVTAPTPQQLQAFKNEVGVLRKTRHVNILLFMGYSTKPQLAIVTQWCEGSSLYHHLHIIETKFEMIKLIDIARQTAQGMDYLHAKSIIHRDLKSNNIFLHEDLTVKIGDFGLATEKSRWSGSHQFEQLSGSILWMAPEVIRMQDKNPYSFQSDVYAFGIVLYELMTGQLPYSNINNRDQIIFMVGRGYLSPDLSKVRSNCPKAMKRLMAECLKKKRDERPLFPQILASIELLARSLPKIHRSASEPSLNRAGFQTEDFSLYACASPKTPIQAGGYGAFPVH

GI50 [1]: 0.43 µM
GI50 [2]: 0.056 µM
GI50 ([3]; BaF3-P210 cells, 72 hours): > 10 µM
GI50 ([4]; BaF3-P210-T315I cells, 72 hours): 5.16 µM
GI50 ([5]; BaF3-FL-BRAF-V600E cells, 72 hours): 4.7 µM
SMILES: Cc1ccc(NC(=O)c2cccc(C(F)(F)F)n2)cc1-n1cc(-c2cncc(N3CCN(C)CC3)c2)cn1 [Compound 1, N-(4-methyl-3-(4-(5-(4-methylpiperazin-1-yl)pyridin-3-yl)-1H-pyrazol-1-yl)phenyl)-6-(trifluoromethyl)picolinamide]
inhibitory effect against ABL (in words) ([3]; summary of Table 2): no inhibitory effect, or a relatively weak inhibitory effect
inhibitory effect against ABL-T315I (in words) ([4]; summary of Table 2): no inhibitory effect, or a relatively weak inhibitory effect
inhibitory effect against BRAF-V600E (in words) ([5]; summary of Table 2): no inhibitory effect, or a relatively weak inhibitory effect
tumor growth inhibitory rate (TGI) ([6]; 5 mg/kg, 14 days after administration, by tumor weight vs control group, FIG. 1c): 96%
effect on tumor size (in words) ([6]; 5 mg/kg, FIG. 1b): excellent effect in inhibiting the tumor
effect on the body weight of the mouse (in words) ([6]; EOL-1 mouse model, 14 days administration, FIG. 1a): little effect on the body weight

Source: patent publication US12310963B2, “Pyrazole derivatives and use thereof” (Tarapeutics Science Inc., priority 2019, dated 2025)
